Laboratory results from US6407288B1, “Naphthylsalicylanilides as antimicrobial and antiinflammatory agents” (The Research Foundation of State University of New York, priority 2000, dated 2002).
Converted amounts (≈) assume the structure as drawn.

How the values were obtained:
[1] = tested on: P. ging 381; test: MIC microdilution, gram negative; format: cell-based, Porphyromonas gingivalis; details: for MIC: Porphyromonas gingivalis, 381
Protocol: The MIC's for the compounds were determined by a modified microdilution tube dilution method described in “Methods for Dilution Antimicrobial Susceptibility Tests for Bacteria that Grow Aerobically” (National Committee for Clinical Laboratory Standards Approved Standards, 1997, NCCLS document M7-A4). In general the modifications were made because of the unique growth requirements for the fastidious oral organisms and for those bacteria that require anaerobic conditions. Reference is also made to “Methods for Antimicrobial Susceptibility of Anaerobic Bacteria” (National Committee for Clinical Laboratory Standards Approved Standards, 1997, NCCLS document M11-A4). Briefly, the methods were as follows. Cultures were grown for 18-24hrs (aerobic bacteria) or 48-72 hrs (anaerobic bacteria) in the appropriate medium. For aerobic bacteria full strength brain heart infusion medium (BHI, Difco) was used. For anaerobic bacteria, half strength BHI (18.5 g/L) was supplemented by adding yeast extract (10 g/L), hemin (0.29 mL of a stock solution containing 0.1 g/200 mL dH2O) and menadione (15 mL of a stock solution containing 0.15 mL in 30 mL 95% EtOH) was used. Initial cultures were diluted to approximately 1×10^8 CFU/mL for use as an inoculum. Each assay received 10 μL of the inoculum. The drugs were prepared from a stock solution contained in dimethyl sulfoxide (DMSO) and diluted into the culture medium. Final concentrations of the drugs ranged from 50 to 0.05 μg/assay. The tests were run in duplicate and were incubated appropriately with regard to oxygen requirements for 24 to 48 hrs as required. Anaerobic incubation was an atmosphere of 5% CO2, 10% H2, with the balance N2. The lowest concentration of an antimicrobial agent at which no visible growth is noted was referred to as the MIC. […] The method used was the same as described in Example 1.

[2] = tested on: A. viscosus; test: MIC microdilution, gram positive; format: cell-based, Actinomyces viscosus; details: Table 2, Gram Positive; for MIC: Actinomyces viscosus
Protocol: (§1) The MIC's for the compounds were determined by a modified microdilution tube dilution method described in “Methods for Dilution Antimicrobial Susceptibility Tests for Bacteria that Grow Aerobically” (National Committee for Clinical Laboratory Standards Approved Standards, 1997, NCCLS document M7-A4). In general the modifications were made because of the unique growth requirements for the fastidious oral organisms and for those bacteria that require anaerobic conditions. Reference is also made to “Methods for Antimicrobial Susceptibility of Anaerobic Bacteria” (National Committee for Clinical Laboratory Standards Approved Standards, 1997, NCCLS document M11-A4). Briefly, the methods were as follows. Cultures were grown for 18-24hrs (aerobic bacteria) or 48-72 hrs (anaerobic bacteria) in the appropriate medium. For aerobic bacteria full strength brain heart infusion medium (BHI, Difco) was used. For anaerobic bacteria, half strength BHI (18.5 g/L) was supplemented by adding yeast extract (10 g/L), hemin (0.29 mL of a stock solution containing 0.1 g/200 mL dH2O) and menadione (15 mL of a stock solution containing 0.15 mL in 30 mL 95% EtOH) was used. Initial cultures were diluted to approximately 1×10^8 CFU/mL for use as an inoculum. Each assay received 10 μL of the inoculum. The drugs were prepared from a stock solution contained in dimethyl sulfoxide (DMSO) and diluted into the culture medium. Final concentrations of the drugs ranged from 50 to 0.05 μg/assay. The tests were run in duplicate and were incubated appropriately with regard to oxygen requirements for 24 to 48 hrs as required. Anaerobic incubation was an atmosphere of 5% CO2, 10% H2, with the balance N2. The lowest concentration of an antimicrobial agent at which no visible growth is noted was referred to as the MIC.

[3] = tested on: S. aureus; test: MIC microdilution, gram positive; format: cell-based, Staphlococcus aureus; details: Table 2, Gram Positive; for MIC: Staphylococcus aureus
Protocol: The MIC's for the compounds were determined by a modified microdilution tube dilution method described in “Methods for Dilution Antimicrobial Susceptibility Tests for Bacteria that Grow Aerobically” (National Committee for Clinical Laboratory Standards Approved Standards, 1997, NCCLS document M7-A4). In general the modifications were made because of the unique growth requirements for the fastidious oral organisms and for those bacteria that require anaerobic conditions. Reference is also made to “Methods for Antimicrobial Susceptibility of Anaerobic Bacteria” (National Committee for Clinical Laboratory Standards Approved Standards, 1997, NCCLS document M11-A4).
Briefly, the methods were as follows. Cultures were grown for 18-24hrs (aerobic bacteria) or 48-72 hrs (anaerobic bacteria) in the appropriate medium. For aerobic bacteria full strength brain heart infusion medium (BHI, Difco) was used. For anaerobic bacteria, half strength BHI (18.5 g/L) was supplemented by adding yeast extract (10 g/L), hemin (0.29 mL of a stock solution containing 0.1 g/200 mL dH2O) and menadione (15 mL of a stock solution containing 0.15 mL in 30 mL 95% EtOH) was used. Initial cultures were diluted to approximately 1×10^8 CFU/mL for use as an inoculum. Each assay received 10 μL of the inoculum. The drugs were prepared from a stock solution contained in dimethyl sulfoxide (DMSO) and diluted into the culture medium. Final concentrations of the drugs ranged from 50 to 0.05 μg/assay. The tests were run in duplicate and were incubated appropriately with regard to oxygen requirements for 24 to 48 hrs as required. Anaerobic incubation was an atmosphere of 5% CO2, 10% H2, with the balance N2. The lowest concentration of an antimicrobial agent at which no visible growth is noted was referred to as the MIC.
This embodiment describes the sensitivity of various staphylococcus strains to the compounds of the present invention. The staphylococcus species R is a strain 00-045-1209 from the Children's Hospital in Buffalo. It was isolated from the peritoneal cavity (fluid culture) of an individual. It was coagulase negative. The sensitivity of this strain was tested agaisnt several known antibiotics.

[4] = tested on: S. mutans; test: MIC microdilution, gram positive; format: cell-based, Streptococcus mutans; details: Table 1, Gram Positive; for MIC: Streptococcus mutans
Protocol: as §1

[5] = tested on: P. acnes 6922; test: MIC microdilution, gram positive; format: cell-based, Propionibacterium acnes; details: Table 1, Gram Positive; for MIC: Cutibacterium acnes, 6922
Protocol: as §1

[6] = tested on: P. acnes 11828; test: MIC microdilution, gram positive; format: cell-based, Propionibacterium acnes; details: Cutibacterium acnes, 11828; Table 1, Gram Positive
Protocol: as §1

[7] = tested on: S.salivarius; test: MIC microdilution, gram positive; format: cell-based, Streptococcus salivarius; details: Streptococcus salivarius; Table 1, Gram Positive
Protocol: as §1

[8] = tested on: S. sanguis; test: MIC microdilution, gram positive; format: cell-based, Streptococcus sanguis; details: Streptococcus; Table 1, Gram Positive
Protocol: as §1

[9] = Table 3 printed a second time, Gram Negative

Row | SMILES | MIC ([1]; Table 3, Gram Negative) [µg/mL] | MIC P. ging 381 [1, 9] | MIC [2] [µg/mL] | MIC [3] [µg/mL] | MIC [4] [µg/mL] | MIC [5] [µg/mL] | MIC [6] [µg/mL] | MIC [7] [µg/mL] | MIC [8] [µg/mL] | MIC P. ging 381 ([1]; Table 3, Gram Negative) | MIC A. viscosus [2] | MIC S. aureus [3] | MIC S. mutans [4] | MIC P. acnes 6922 [5]
1 | COc1cc(NC(=O)c2cc(C(=O)c3cccc4ccccc34)ccc2O)cc(OC)c1 [NA1-2mOMe] | – | NE (NE indicates that the drug was not effective at a concentration >50 micrograms/ml) | – | – | – | – | – | – | – | NE (NE indicates that the drug was not effective at a concentration >50 micrograms/ml) | NE (NE indicates that the drug was not effective at a concentration >50 micrograms/ml) | NE (NE indicates that the drug was not effective at a concentration >50 micrograms/ml) | NE (NE indicates that the drug was not effective at a concentration >50 micrograms/ml) | NE (NE indicates that the drug was not effective at a concentration >50 micrograms/ml)
2 | O=C(Nc1cccc(Oc2ccccc2)c1)c1cc(C(=O)c2cccc3ccccc23)ccc1O [NA1mOPh] | – | NE (NE indicates that the drug was not effective at a concentration >50 micrograms/ml) | – | – | – | – | – | – | – | NE (NE indicates that the drug was not effective at a concentration >50 micrograms/ml) | NE (NE indicates that the drug was not effective at a concentration >50 micrograms/ml) | NE (NE indicates that the drug was not effective at a concentration >50 micrograms/ml) | NE (NE indicates that the drug was not effective at a concentration >50 micrograms/ml) | NE (NE indicates that the drug was not effective at a concentration >50 micrograms/ml)
3 | O=C(c1ccccc1)c1ccc(NC(=O)c2cc(C(=O)c3cccc4ccccc34)ccc2O)cc1 [NA1pBz] | – | NE (NE indicates that the drug was not effective at a concentration >50 micrograms/ml) | – | – | – | – | – | – | – | NE (NE indicates that the drug was not effective at a concentration >50 micrograms/ml) | NE (NE indicates that the drug was not effective at a concentration >50 micrograms/ml) | NE (NE indicates that the drug was not effective at a concentration >50 micrograms/ml) | NE (NE indicates that the drug was not effective at a concentration >50 micrograms/ml) | NE (NE indicates that the drug was not effective at a concentration >50 micrograms/ml)

Now from value to compound, other results behind:

Row | MIC ([1]; Table 3, Gram Negative) [µg/mL] | MIC P. ging 381 [1, 9] | MIC [2] [µg/mL] | MIC [3] [µg/mL] | MIC [4] [µg/mL] | MIC [5] [µg/mL] | MIC [6] [µg/mL] | MIC [7] [µg/mL] | MIC [8] [µg/mL] | SMILES | MIC P. ging 381 ([1]; Table 3, Gram Negative) | MIC A. viscosus [2] | MIC S. aureus [3] | MIC S. mutans [4] | MIC P. acnes 6922 [5]
4 | 1.6 (≈ 4.35 µM) | 1.6 micrograms/ml | 3.1 (≈ 8.44 µM) | 50 (≈ 136 µM) | 50 (≈ 136 µM) | 25 (≈ 68 µM) | > 50 | > 50 | > 50 | O=C(Nc1ccccc1)c1cc(C(=O)c2cccc3ccccc23)ccc1O [NA1, 2-Hydroxy-5-(naphthalene-1-carbonyl)-N-phenyl-benzamide] | – | – | – | – | –
5 | – | 0.2 micrograms/ml | – | – | – | – | – | – | – | N#Cc1ccc(NC(=O)c2cc(C(=O)c3cccc4ccccc34)ccc2O)c2ccccc12 [NA1NpC] | 0.2 micrograms/ml | 0.8 micrograms/ml | NE (NE indicates that the drug was not effective at a concentration >50 micrograms/ml) | NE (NE indicates that the drug was not effective at a concentration >50 micrograms/ml) | 0.4 micrograms/ml
6 | 0.8 (≈ 1.77 µM) | 0.8 micrograms/ml | 0.8 (≈ 1.77 µM) | > 50 | 6.3 (≈ 14 µM) | 3.1 (≈ 6.87 µM) | – | – | – | O=C(Nc1cccc(C(F)(F)F)c1)c1cc(C(=O)c2c(O)ccc3ccccc23)ccc1O [NA1OHmF] | – | – | – | – | –
7 | 3.1 (≈ 6.55 µM) | 3.1 micrograms/ml | 6.3 (≈ 13.3 µM) | > 50 | > 50 | > 50 | – | – | – | O=C(Nc1cccc(COc2ccccc2)c1)c1cc(C(=O)c2cccc3ccccc23)ccc1O [NA1_3BnOP] | – | – | – | – | –
8 | 0.2 (≈ 0.397 µM) | 0.2 micrograms/ml | 0.8 (≈ 1.59 µM) | > 50 | 1.6 (≈ 3.18 µM) | 0.4 (≈ 0.795 µM) | – | – | – | O=C(Nc1cc(C(F)(F)F)cc(C(F)(F)F)c1)c1cc(C(=O)c2cccc3ccccc23)ccc1O [NAmF2] | – | – | – | – | –
